These results are taken from publication PMC6843786, “Temporin-SHa and Its Analogs as Potential Candidates for the Treatment of Helicobacter pylori” (Biomolecules, 2019).

Series [1] has as its system H. pylori (ATCC 43504). The series can be described thus: Membrane permeabilization assay (propidium iodide). Conditions: propidium iodide, CTAB 300 µM = 100%. The method, then: Bacterial membrane permeabilization was evaluated using the cell-impermeable DNA/RNA probe propidium iodide as previously explained. Logarithmic growing bacterial suspension of H. pylori (ATCC 43504) was prepared from overnight bacterial suspension after 1:10 dilution. After 3 h incubation at 37 °C, in microaerophilic condition, bacterial suspensions were centrifuged for 5 min at 3000× g. Cell pellets were then resuspended in sterile PBS at about […]. Propidium iodide (solution at 1 mg/mL, Sigma Aldrich) was then added to the suspension at a final concentration of 60 µM. 100 µL of this suspension were then transferred into 96-well black plates and were exposed to increasing concentrations of peptides obtained by serial dilution (from zero to 100 µM, 1:2 dilution). […] Kinetics of fluorescence variations (excitation at 530 nm and emission at 590 nm) were then recorded over 240 min of incubation at 37 °C in micro-aerobic condition using a microplate reader (Biotek, Synergy Mx). The effect of the peptides on the membrane integrity was expressed in percentage of permeabilization, CTAB at 300 µM being used as positive control giving 100% permeabilization. All experiments were done in triplicate.

Series [2] deals with H. pylori (ATCC 43504). The method, then: Briefly, after the growth of H. pylori in liquid culture the optical density (OD) of the bacterial suspensions were read at 600 nm and adjusted to one. Stock solutions of the peptides at 1 mM were prepared in sterile water. Bacteria were diluted in medium to reach bacterial density around 10^5 bacteria/mL. One-hundred microliters per well of bacterial suspension were then added into sterile polypropylene 96-well microplates (Greiner BioOne, Paris, France) and exposed to increasing concentrations of peptides (from zero to 100 µM, 1:2 serial dilution). […] Plates were incubated at 37 °C for 24 h for H. pylori (ATCC 43504) and for 4–7 days for the clinical strains. H. pylori was tested in microaerophilic conditions generated using micro-anaerobic BD GasPak system. At the end of the incubation, OD600nm was measured using microplate reader (Synergy Mx, Biotek, Colmar, France). The MIC was defined as the lowest concentration of drug that inhibited visible growth of the organism. Experiments were conducted in independent triplicate (n = 3).
It is also rich with mucus to protect it from the aggressive acidity. For this reason, the impact of mucins and pepsin on the activity of the peptides was investigated. The impact of the gastric mucins on peptide activity was evaluated using a combination of commercial porcine stomach mucins MUC2 and MUC3 (Sigma–Aldrich) at a final concentration of 1 mg/mL sterilized using 0.2 µm filter. This concentration was used based on the estimated concentration of mucins present in the mucus in vivo [27]. The effect of mucins on peptides activity was evaluated by MIC and by time killing assay as explained below. The resistance of the peptides to pepsin was tested as previously described with some changes. […] This concentration was used since it corresponds the pepsin concentration in the stomach (0.5–1 mg/mL).

The test system of series [3] is total lipids extracted from H. pylori (ATCC 43504). The series can be described thus: Lipid insertion assay (lipid monolayer, critical pressure of insertion). Details: species or system biophysical. Conditions: peptide 1 µM, PBS pH 7.4, from the line fits of Figure 4. The method, then: Peptide-lipid interaction was measured using reconstituted lipid monolayer at the air-water interface as previously described. Total lipids were extracted from overnight cultures of H. pylori (ATCC 43504) using Folch extraction procedure as previously described. Extracted total lipids were dried, resolubilized in chloroform:methanol (2:1, v/v) and stored at -20 °C under nitrogen. For peptide-lipid interaction assay, total lipid extract was spread using a 50 μL Hamilton's syringe at the surface of 800 μL of sterile PBS creating a lipid monolayer at the air-water interface. Lipids were added until the surface pressure reached the desired value. […] The variation of the surface pressure caused by peptide injection was then continuously monitored using a fully automated microtensiometer (μTROUGH SX, Kibron Inc., Helsinki, Finland) until reaching equilibrium (maximal surface pressure increase being usually obtained after 15-25 min). […] Variation of surface pressure was plotted as a function of initial surface pressure and the critical pressure of insertion of each peptide into H. pylori lipids was calculated as the theoretical value of initial pressure of lipid monolayer not permissive to peptide insertion, i.e., giving a variation of pressure equal to 0 mN/m.

For series [4], the system named is H. pylori (ATCC 43504). The procedure:
The bactericidal activity of peptides was assessed using the time kill assay as previously described with some modifications. Briefly, overnight liquid culture of H. pylori (ATCC 43504) was prepared and an optical density measurement (OD600nm) was taken to provide an estimation of cell numbers in the culture. Bacterial suspension was then centrifuged at 3000 rpm for 5 min and the bacterial pellet was then resuspended in sterile PBS pH6 at approximatively 10^7 CFU/mL. The pH of PBS was changed from 7 to 6 with HCl to mimic the micro-environment surrounding H. pylori in the stomach. Indeed, although the lumen of the stomach is around 1–2, H. pylori is able, through the activity of its urease, to create a local micro-environment around it of pH 6 [31]. In addition to PBS pH 6, the time kill assay was also performed in PBS pH 6 containing a mixture of porcine stomach mucins MUC2 and MUC3 (at 1 mg/mL, final concentration) or in the presence of human gastric cells N87 producing human mucus. In that particular case, N87 cells were seeded onto 96-wells plates and left to grow for 48–72 h until they reached confluence. At that time, wells were aspirated and bacterial suspension in PBS pH 6 were added to the wells. In all cases, resuspended bacteria (200 µL) were treated with peptides or the conventional antibiotic amoxicillin at a final concentration corresponding to five times their MIC. Bacteria were then incubated in micro-aerobic conditions at 37 °C using GasPak units. […] The petri dishes were then incubated 16 h at 37 °C in microaerophilic conditions before counting of growing colonies. The number of surviving bacteria was calculated using the number of observed colonies and the dilution factor. The experiment was done in triplicate.
This is another data set of the same source.

Where two headings read alike, the source gives them in different places. Non-standard residues stand in square brackets, D forms with d. Residues, ends and D or L forms follow the SMILES beside them.

With `CC[C@H](C)[C@H](NC(=O)CNC(=O)[C@H](CO)NC(=O)[C@H](CC(C)C)NC(=O)[C@@H](N)Cc1ccccc1)C(=O)N[C@H](C(=O)NCC(=O)N[C@@H](CCSC)C(=O)N[C@@H](CC(C)C)C(=O)N[C@H](C)C(=O)N[C@@H](CCCCN)C(=O)N[C@@H](CC(C)C)C(=O)N[C@@H](Cc1ccccc1)C(N)=O)C(C)C` [NST1, H-Phe^1-Leu^2-Ser^3-Gly^4-Ile^5-Val^6-Gly^7-Met^8-Leu^9-D-Ala^10-Lys^11-Leu^12-Phe^13-NH2] (H-FLSGIVGML[dA]KLF-NH2), in the series with H. pylori (ATCC 43504) [1], the “membrane permeabilization of H. pylori (ranking in words)” value was “strongest permeabilization”. In addition, the “increase of MIC in the presence of mucins” value with H. pylori (ATCC 43504) [2] (MUC2 and MUC3 at 1 mg/mL versus no mucins) is on record as “two”. The “MIC in the Presence of mucins” value with H. pylori (ATCC 43504) [2] (porcine gastric mucins MUC2 and MUC3 at 1 mg/mL) turned out to be 3.12 µM. The “critical pressure of insertion (CPI)” value in series [3] is 38.65 mN/m. In the series with H. pylori (ATCC 43504) [4] (20 min, PBS pH 6, 5-times MIC), the “decrease of the number of CFUs” value is on record as “three” and the killing stood at 99%. Also, the killing in the series with H. pylori (ATCC 43504) [4] (60 min, presence of mucus (porcine MUC2/MUC3 1 mg/mL or N87 cells), 5-times MIC) is listed as 91–98%. In the series with H. pylori (ATCC 43504) [4] (3 h, PBS pH 6, 5-times MIC), this molecule yielded a survival of 0%.
